Source: PubChem BioAssay (NCI)
Values joined by “and” are separate entries in the source; they are usually repeats but may differ in a detail not shown here. Equal entries are not always repeated.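 Five concentrations, 48 hours, 96-well plates. GI50 = concentration required for 50% inhibition of growth. TGI marks complete inhibition of growth.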

What was measured:
Assay in all cases: NCI anticancer screen, dose series, 48 h
786-0 renal = tested on: 786-0 renal
A549 NSCLC = tested on: A549 NSCLC
CAKI-1 renal = tested on: CAKI-1 renal
HT29 colon = tested on: HT29 colon
IGROV1 ovarian = tested on: IGROV1 ovarian
MDA-MB-231 breast = tested on: MDA-MB-231 breast
MOLT-4 leukemia = tested on: MOLT-4 leukemia
NCI/ADR-RES ovarian = tested on: NCI/ADR-RES ovarian
SF-295 CNS = tested on: SF-295 CNS
SW-620 colon = tested on: SW-620 colon

Row | SMILES | GI50 (786-0 renal) | TGI (786-0 renal) | GI50 (A549 NSCLC) | TGI (A549 NSCLC) | GI50 (CAKI-1 renal) | TGI (CAKI-1 renal) | GI50 (HT29 colon) | TGI (HT29 colon) | GI50 (IGROV1 ovarian) | TGI (IGROV1 ovarian) [µM] | GI50 (MDA-MB-231 breast) | TGI (MDA-MB-231 breast) | GI50 (MOLT-4 leukemia) | TGI (MOLT-4 leukemia) [µM] | GI50 (NCI/ADR-RES ovarian) | TGI (NCI/ADR-RES ovarian) | GI50 (SF-295 CNS) | TGI (SF-295 CNS) | GI50 (SW-620 colon) | TGI (SW-620 colon)
1 | COc1cc(N2CCC(N(C)C)CC2)ccc1Nc1ncc(Cl)c(Nc2ccccc2P(C)(C)=O)n1 | 1.12 µM and 0.483 µM | 10 µM and > 6.3 µM | 0.617 µM and 0.218 µM | 8.54 µM and > 7.6 µM | 3.24 µM and 0.326 µM | 10.5 µM and > 4.56 µM | 0.261 µM and 0.0794 µM | 2.99 µM and 0.785 µM | 0.687 µM and 0.181 µM | > 100 | 1.22 µM and 0.333 µM | 7.37 µM and > 5.39 µM | 4.05 µM and 1.16 µM | > 100 | 15.6 µM and > 6.15 µM | 98.1 µM and > 10 µM | 1.81 µM and 0.409 µM | 15.8 µM and > 5.44 µM | 1.33 µM and 0.213 µM | > 26.5 µM and 6.65 µM
2 | COc1ccc(/C=C/C(=O)c2ccc(Nc3ncnc4ccccc34)cc2)cc1OC | 7.96 µM | > 100 µM | 3.66 µM | > 100 µM | 16.8 µM | > 100 µM | 3.21 µM | 12.1 µM | 20.7 µM | > 100 | 19.8 µM | > 100 µM | 5.68 µM | 23.5 | 3.82 µM | > 100 µM | 6.25 µM | > 100 µM | 3.51 µM | > 100 µM
3 | COC(=O)Nc1ccc2ccc3c(NC(=O)OC)ccc4ccc1c2c43 (tested in a mixture with another compound) | 12.2 µM | 41.2 µM | 7.78 µM | > 50 µM | 6.44 µM | 27.4 µM | 4.31 µM | > 50 µM | 7.98 µM | > 50 | 7.95 µM | 35.7 µM | 7.07 µM | 33.7 | 4.59 µM | 19.2 µM | 5.25 µM | 30.2 µM | 3.9 µM | > 50 µM
4 | Clc1nc(Cl)c2ncn(C/C=C\Cn3cnc4c(Cl)nc(Cl)nc43)c2n1 | 2.6 µM | 6.88 µM | 3.67 µM | 39.4 µM | 1.16 µM | 2.41 µM | 1.69 µM | 3.35 µM | 1.17 µM | 2.94 | 2.72 µM | 5.95 µM | 2.05 µM | 4.11 | 2.46 µM | 8.01 µM | 1.54 µM | 3.06 µM | 1.41 µM | 2.99 µM
5 | C[C@]12CC[C@H]3[C@@H](CCC4=CC(=O)CC[C@@H]43)[C@@H]1CC[C@@H]2OC1(O)C(=O)c2ccccc2C1=O | – | 83.5 µM | – | > 100 µM | – | > 100 µM | – | > 100 µM | – | > 100 | – | > 100 µM | – | 92.8 | – | > 100 µM | – | > 100 µM | – | > 100 µM
6 | COc1cc(C)cc2c1OC(c1ccccc1)CC2=O (stereo not given) | > 100 µM | > 100 µM | > 100 µM | > 100 µM | > 100 µM | > 100 µM | > 100 µM | > 100 µM | > 100 µM | > 100 | > 100 µM | > 100 µM | > 100 µM | > 100 | > 100 µM | > 100 µM | > 100 µM | > 100 µM | > 100 µM | > 100 µM
7 | FC(F)(F)c1ccc2c(c1)N(CCCN1CCN(C3CC3)CC1)c1ccccc1S2 | 15.4 µM | 30.3 µM | 10.9 µM | 23.5 µM | 3.6 µM | 16.1 µM | 3.48 µM | 13.8 µM | 11.6 µM | 28.3 | 10.9 µM | 26.1 µM | 6.13 µM | 23.7 | 10.3 µM | 23.1 µM | 3.74 µM | 18.4 µM | 4.42 µM | 18.1 µM
8 | Nc1cc(N)c2nc(-c3ccccc3)c(Nc3ccc(F)cc3)nc2c1 | 17.4 µM | 54.3 µM | 17.2 µM | 44.6 µM | 19.2 µM | 40.4 µM | 18.6 µM | 35.3 µM | 16.6 µM | > 100 | 11 µM | 30.5 µM | > 100 µM | > 100 | 23.8 µM | 57.5 µM | 14.4 µM | 32.4 µM | 13.6 µM | 39.2 µM
9 | CC[C@@]1(O)C(=O)NCc2c1cc1n(c2=O)Cc2cc3cc4c(cc3nc2-1)OCO4 | 0.672 µM | 14.4 µM | 0.618 µM | > 73.4 µM | 0.417 µM | > 9.04 µM | 2.02 µM | 37.3 µM | 1.59 µM | 63.4 | > 48.2 µM | > 100 µM | 0.118 µM | 0.414 | 0.236 µM | 1.56 µM | 0.148 µM | 25.7 µM | 0.352 µM | > 26.3 µM
10 | Cc1cccc(C(C)O)n1 (stereo not given) | – | > 100 µM | – | > 100 µM | – | > 100 µM | – | > 100 µM | – | > 100 | – | > 100 µM | – | > 100 | – | > 100 µM | – | > 100 µM | – | > 100 µM
11 | COc1ccc(NC2=C(Sc3nc(C)cc(C)n3)C(=O)N(Cc3ccccc3)C2=O)cc1Cl | 49.2 µM | > 160 µM | > 160 µM | > 160 µM | > 160 µM | > 160 µM | 54.5 µM | > 160 µM | 108 µM | > 160 | 127 µM | > 160 µM | 14.4 µM | > 160 | > 160 µM | > 160 µM | 74.9 µM | > 160 µM | > 160 µM | > 160 µM
12 | CN(C)c1cccc2[nH]c(-c3[nH]ncc3Nc3ccnc(N)n3)nc12 | 0.0247 µM | 1.13 µM | 0.0331 µM | 1.15 µM | < 0.01 µM | 1.01 µM | 0.0286 µM | 0.638 µM | 0.0201 µM | 0.346 | 0.0233 µM | 0.141 µM | 0.0258 µM | 10.2 | 0.0328 µM | 1.5 µM | 0.0172 µM | 0.0628 µM | < 0.0141 µM | 1.22 µM
13 | [N-]=[N+]=Nc1ncc(-c2ccc(C(F)(F)F)cc2)c(NC2CCCCCC2)n1 | > 10 µM | > 10 µM | > 10 µM | > 10 µM | > 10 µM | > 10 µM | > 10 µM | > 10 µM | > 10 µM | > 10 | > 10 µM | > 10 µM | > 10 µM | > 10 | > 10 µM | > 10 µM | > 10 µM | > 10 µM | > 10 µM | > 10 µM
